Test results from ChEMBL document CHEMBL1201862, “PubChem BioAssay data set” (2004).
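Method: 48-hour compound exposure of cells in 96-well plates, five concentrations, linear interpolation of endpoints. Abbreviation: GI50, concentration required for 50% inhibition of growth.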 The source made the active and inactive calls. No stated cut-off is given here; in the data, active = GI50 up to about 1.1 µM and inactive = higher.

Legend:
Experiment in all cases: NCI anticancer screen, dose series, 48 h
HL-60 = system: HL-60
SF-268 = system: SF-268
SK-MEL-5 = system: SK-MEL-5
SK-MEL-2 = system: SK-MEL-2
KM-20L2 = system: KM-20L2
SF-295 = system: SF-295
M19-MEL = system: M19-MEL
A498 = system: A498
DMS-273 = system: DMS-273
OVCAR-4 = system: OVCAR-4
MOLT-4 = system: MOLT-4
SF-539 = system: SF-539
RPMI-8226 = system: RPMI-8226
IGROV-1 = system: IGROV-1
SNB-78 = system: SNB-78
786-0 = system: 786-0
NCI-H226 = system: NCI-H226
U-251 = system: U-251
RXF 393 = system: RXF 393
HT-29 = system: HT-29
SW-620 = system: SW-620
KM12 = system: KM12
OVCAR-5 = system: OVCAR-5
SN12C = system: SN12C
NCI-H23 = system: NCI-H23
UACC-257 = system: UACC-257
A549 = system: A549
DMS-114 = system: DMS-114
COLO 205 = system: COLO 205
UO-31 = system: UO-31
SNB-75 = system: SNB-75
OVCAR-8 = system: OVCAR-8
K562 = system: K562
NCI-H460 = system: NCI-H460
TK-10 = system: TK-10
M14 = system: M14
OVCAR-3 = system: OVCAR-3
CCRF-CEM = system: CCRF-CEM
DLD-1 = system: DLD-1
UACC-62 = system: UACC-62
Malme-3M = system: Malme-3M
LOX IMVI = system: LOX IMVI
HOP-18 = system: HOP-18
ACHN = system: ACHN
HOP-92 = system: HOP-92
LXFL 529 = system: LXFL 529
SK-MEL-28 = system: SK-MEL-28
SK-OV-3 = system: SK-OV-3
HCC 2998 = system: HCC 2998
CAKI-1 = system: CAKI-1
HCT-15 = system: HCT-15
EKVX = system: EKVX
SNB-19 = system: SNB-19
SR = system: SR
NCI-H522 = system: NCI-H522
HCT-116 = system: HCT-116
HOP-62 = system: HOP-62

Structure (SMILES): CC(C)(CN1C(=O)C(Cl)=C(Cl)C1=O)CN1C(=O)C(Cl)=C(Cl)C1=O
- GI50 (HL-60): 0.552 µM (active)
- GI50 (SF-268): 19.1 µM (inactive)
- GI50 (SK-MEL-5): 22.1 µM (inactive)
- GI50 (SK-MEL-2): 18.8 µM (inactive)
- GI50 (KM-20L2): 16.6 µM (inactive)
- GI50 (SF-295): 24.3 µM (inactive)
- GI50 (M19-MEL): 7.66 µM (inactive)
- GI50 (A498): 28.6 µM (inactive)
- GI50 (DMS-273): 6.92 µM (inactive)
- GI50 (OVCAR-4): 21.7 µM (inactive)
- GI50 (MOLT-4): 0.966 µM (active)
- GI50 (SF-539): 20.1 µM (inactive)
- GI50 (RPMI-8226): 1.71 µM (inactive)
- GI50 (IGROV-1): 18.9 µM (inactive)
- GI50 (SNB-78): 19 µM (inactive)
- GI50 (786-0): 11.7 µM (inactive)
- GI50 (NCI-H226): 22.5 µM (inactive)
- GI50 (U-251): 18.1 µM (inactive)
- GI50 (RXF 393): 6 µM (inactive)
- GI50 (HT-29): 13.2 µM (inactive)
- GI50 (SW-620): 5 µM (inactive)
- GI50 (KM12): 24.2 µM (inactive)
- GI50 (OVCAR-5): 19.8 µM (inactive)
- GI50 (SN12C): 11.7 µM (inactive)
- GI50 (NCI-H23): 11.7 µM (inactive)
- GI50 (UACC-257): 13.9 µM (inactive)
- GI50 (A549): 35.5 µM (inactive)
- GI50 (DMS-114): 9.75 µM (inactive)
- GI50 (COLO 205): 3.23 µM (inactive)
- GI50 (UO-31): 31.6 µM (inactive)
- GI50 (SNB-75): 22.2 µM (inactive)
- GI50 (OVCAR-8): 6.34 µM (inactive)
- GI50 (K562): 1.64 µM (inactive)
- GI50 (NCI-H460): 35 µM (inactive)
- GI50 (TK-10): 9.02 µM (inactive)
- GI50 (M14): 16.6 µM (inactive)
- GI50 (OVCAR-3): 8.02 µM (inactive)
- GI50 (CCRF-CEM): 0.264 µM (active)
- GI50 (DLD-1): 3.38 µM (inactive)
- GI50 (UACC-62): 14.1 µM (inactive)
- GI50 (Malme-3M): 5.74 µM (inactive)
- GI50 (LOX IMVI): 12.2 µM (inactive)
- GI50 (HOP-18): 19.4 µM (inactive)
- GI50 (ACHN): 9.44 µM (inactive)
- GI50 (HOP-92): 7.64 µM (inactive)
- GI50 (LXFL 529): 6.5 µM (inactive)
- GI50 (SK-MEL-28): 7.48 µM (inactive)
- GI50 (SK-OV-3): 33.3 µM (inactive)
- GI50 (HCC 2998): 12 µM (inactive)
- GI50 (CAKI-1): 8.15 µM (inactive)
- GI50 (HCT-15): 8.63 µM
- GI50 (EKVX): 19.9 µM (inactive)
- GI50 (SNB-19): 23 µM (inactive)
- GI50 (SR): 2.58 µM (inactive)
- GI50 (NCI-H522): 1.62 µM (inactive)
- GI50 (HCT-116): 11.5 µM (inactive)
- GI50 (HOP-62): 22.1 µM (inactive)

Structure (SMILES): C[C@]12CCc3nn(-c4ccccc4)nc3C1CC[C@@H]1C2CC[C@]2(C)C(=O)CCC12 (stereo partly drawn)
- GI50 (HL-60): > 100 µM (inactive)
- GI50 (SF-268): > 100 µM (inactive)
- GI50 (SK-MEL-5): > 100 µM (inactive)
- GI50 (SK-MEL-2): > 100 µM (inactive)
- GI50 (KM-20L2): > 100 µM (inactive)
- GI50 (SF-295): > 100 µM (inactive)
- GI50 (M19-MEL): > 100 µM (inactive)
- GI50 (DMS-273): > 100 µM (inactive)
- GI50 (OVCAR-4): > 100 µM (inactive)
- GI50 (MOLT-4): > 100 µM (inactive)
- GI50 (SF-539): > 100 µM (inactive)
- GI50 (RPMI-8226): > 100 µM (inactive)
- GI50 (IGROV-1): > 100 µM (inactive)
- GI50 (SNB-78): > 100 µM (inactive)
- GI50 (786-0): > 100 µM (inactive)
- GI50 (NCI-H226): > 100 µM (inactive)
- GI50 (U-251): > 100 µM (inactive)
- GI50 (RXF 393): > 100 µM (inactive)
- GI50 (HT-29): > 100 µM (inactive)
- GI50 (SW-620): > 100 µM (inactive)
- GI50 (KM12): > 100 µM (inactive)
- GI50 (OVCAR-5): > 100 µM (inactive)
- GI50 (SN12C): > 100 µM (inactive)
- GI50 (NCI-H23): > 100 µM (inactive)
- GI50 (UACC-257): > 100 µM (inactive)
- GI50 (A549): > 100 µM (inactive)
- GI50 (DMS-114): > 100 µM (inactive)
- GI50 (COLO 205): > 100 µM (inactive)
- GI50 (UO-31): > 100 µM (inactive)
- GI50 (SNB-75): > 100 µM (inactive)
- GI50 (OVCAR-8): 94.2 µM (inactive)
- GI50 (K562): 54.3 µM (inactive)
- GI50 (NCI-H460): > 100 µM (inactive)
- GI50 (TK-10): > 100 µM (inactive)
- GI50 (M14): > 100 µM (inactive)
- GI50 (OVCAR-3): > 100 µM (inactive)
- GI50 (CCRF-CEM): > 100 µM (inactive)
- GI50 (DLD-1): 93.3 µM (inactive)
- GI50 (UACC-62): > 100 µM (inactive)
- GI50 (Malme-3M): > 100 µM (inactive)
- GI50 (LOX IMVI): 82.2 µM (inactive)
- GI50 (HOP-18): > 100 µM (inactive)
- GI50 (ACHN): > 100 µM (inactive)
- GI50 (HOP-92): > 100 µM (inactive)
- GI50 (LXFL 529): > 100 µM (inactive)
- GI50 (SK-MEL-28): > 100 µM (inactive)
- GI50 (SK-OV-3): > 100 µM (inactive)
- GI50 (HCC 2998): > 100 µM (inactive)
- GI50 (CAKI-1): > 100 µM (inactive)
- GI50 (HCT-15): > 100 µM
- GI50 (EKVX): > 100 µM (inactive)
- GI50 (SNB-19): > 100 µM (inactive)
- GI50 (SR): > 100 µM (inactive)
- GI50 (NCI-H522): > 100 µM (inactive)
- GI50 (HCT-116): > 100 µM (inactive)
- GI50 (HOP-62): > 100 µM (inactive)
